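Five compound concentrations were applied to cells in 96-well plates for 48 hours; endpoints were derived by simple linear interpolation of the resulting dose-response curve. GI50: concentration for 50% inhibition of growth.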 Active and inactive are the calls of the source. Cut-off read from the data, not from the text of the source: active = GI50 up to about 1.1 µM and inactive = higher.
Columns and labels:
Assay in all cases: inhibition of tumour cell growth, NCI panel, 48 h
786-0 = tested on: 786-0
A549 = tested on: A549
ACHN = tested on: ACHN
BT-549 = tested on: BT-549
CAKI-1 = tested on: CAKI-1
CCRF-CEM = tested on: CCRF-CEM
COLO 205 = tested on: COLO 205
DU-145 = tested on: DU-145
EKVX = tested on: EKVX
HCT-116 = tested on: HCT-116
HCT-15 = tested on: HCT-15
HL-60 = tested on: HL-60
HOP-62 = tested on: HOP-62
HT-29 = tested on: HT-29
Hs-578T = tested on: Hs-578T
IGROV-1 = tested on: IGROV-1
K562 = tested on: K562
KM12 = tested on: KM12
LOX IMVI = tested on: LOX IMVI
M14 = tested on: M14
MCF7 = tested on: MCF7
MDA-MB-231 = tested on: MDA-MB-231
MDA-MB-435 = tested on: MDA-MB-435
MDA-N = tested on: MDA-N
MOLT-4 = tested on: MOLT-4
Malme-3M = tested on: Malme-3M
NCI-H226 = tested on: NCI-H226
NCI-H23 = tested on: NCI-H23
NCI-H460 = tested on: NCI-H460
NCI-H522 = tested on: NCI-H522
NCI/ADR-RES = tested on: NCI/ADR-RES
OVCAR-3 = tested on: OVCAR-3
OVCAR-4 = tested on: OVCAR-4
OVCAR-5 = tested on: OVCAR-5
OVCAR-8 = tested on: OVCAR-8
PC-3 = tested on: PC-3
RPMI-8226 = tested on: RPMI-8226
RXF 393 = tested on: RXF 393
SF-268 = tested on: SF-268
SF-295 = tested on: SF-295
SK-MEL-28 = tested on: SK-MEL-28
SK-MEL-5 = tested on: SK-MEL-5
SK-OV-3 = tested on: SK-OV-3
SN12C = tested on: SN12C
SNB-19 = tested on: SNB-19
SNB-75 = tested on: SNB-75
SR = tested on: SR
T47D = tested on: T47D
TK-10 = tested on: TK-10
U-251 = tested on: U-251
UACC-257 = tested on: UACC-257
UACC-62 = tested on: UACC-62
UO-31 = tested on: UO-31

O=c1[nH]c(=O)n(C2CC(O)C(CO)O2)cc1/N=N/NCCc1ccccc1 (stereo not drawn)
GI50 (786-0): > 100 µM (inactive)
GI50 (A549): > 100 µM (inactive)
GI50 (ACHN): > 100 µM (inactive)
GI50 (BT-549): > 10 µM (inactive)
GI50 (CAKI-1): > 100 µM (inactive)
GI50 (CCRF-CEM): > 100 µM (inactive)
GI50 (COLO 205): > 100 µM (inactive)
GI50 (DU-145): > 100 µM (inactive)
GI50 (EKVX): > 100 µM (inactive)
GI50 (HCT-116): > 100 µM (inactive)
GI50 (HCT-15): > 100 µM
GI50 (HL-60): > 100 µM (inactive)
GI50 (HOP-62): > 100 µM (inactive)
GI50 (HT-29): > 100 µM (inactive)
GI50 (Hs-578T): > 100 µM (inactive)
GI50 (IGROV-1): > 100 µM (inactive)
GI50 (K562): > 100 µM (inactive)
GI50 (KM12): > 100 µM (inactive)
GI50 (LOX IMVI): > 100 µM (inactive)
GI50 (M14): > 100 µM (inactive)
GI50 (MCF7): > 100 µM (inactive)
GI50 (MDA-MB-231): > 100 µM (inactive)
GI50 (MDA-MB-435): > 100 µM (inactive)
GI50 (MDA-N): > 100 µM (inactive)
GI50 (MOLT-4): > 100 µM (inactive)
GI50 (Malme-3M): > 100 µM (inactive)
GI50 (NCI-H226): > 100 µM (inactive)
GI50 (NCI-H23): > 100 µM (inactive)
GI50 (NCI-H460): > 100 µM (inactive)
GI50 (NCI-H522): > 100 µM (inactive)
GI50 (NCI/ADR-RES): > 100 µM (inactive)
GI50 (OVCAR-3): > 100 µM (inactive)
GI50 (OVCAR-4): > 100 µM (inactive)
GI50 (OVCAR-5): > 100 µM (inactive)
GI50 (OVCAR-8): > 100 µM (inactive)
GI50 (PC-3): > 100 µM (inactive)
GI50 (RPMI-8226): > 100 µM (inactive)
GI50 (RXF 393): > 100 µM (inactive)
GI50 (SF-268): > 100 µM (inactive)
GI50 (SF-295): > 100 µM (inactive)
GI50 (SK-MEL-28): > 100 µM (inactive)
GI50 (SK-MEL-5): > 100 µM (inactive)
GI50 (SK-OV-3): > 100 µM (inactive)
GI50 (SN12C): > 100 µM (inactive)
GI50 (SNB-19): > 100 µM (inactive)
GI50 (SNB-75): > 100 µM (inactive)
GI50 (SR): > 100 µM (inactive)
GI50 (T47D): > 100 µM (inactive)
GI50 (TK-10): > 100 µM (inactive)
GI50 (U-251): > 100 µM (inactive)
GI50 (UACC-257): > 100 µM (inactive)
GI50 (UACC-62): > 100 µM (inactive)
GI50 (UO-31): > 100 µM (inactive)
